In ChEMBL document CHEMBL5442219:

Columns and labels:
Details in all cases: Compound concentration 10 µM
[1] = target: Mu-type opioid receptor (Homo sapiens) (UniProt P35372)
Description: PDSP Primary Binding target: OPRM1 - Compounds are tested at 10 uM concentration, plate are incubated at room temperature in the dark for 90 minutes. Reaction are stopped by vacuum filtration onto 0.3% polyethyleneimine soaked filter mats using Filtermate harvester. Scintilation cocktail is then melted onto microwave-dried filters on a hot plate and the radio activity is counted in Microbia counter.

[2] = target: Sodium-dependent dopamine transporter (Homo sapiens) (UniProt Q01959)
Description: PDSP Primary Binding target: SLC6A3 - Compounds are tested at 10 uM concentration, plate are incubated at room temperature in the dark for 90 minutes. Reaction are stopped by vacuum filtration onto 0.3% polyethyleneimine soaked filter mats using Filtermate harvester. Scintilation cocktail is then melted onto microwave-dried filters on a hot plate and the radio activity is counted in Microbia counter.

[3] = target: T1, Alpha-2B adrenergic receptor (Homo sapiens) (UniProt P18089)
T1 sequence (whole entry): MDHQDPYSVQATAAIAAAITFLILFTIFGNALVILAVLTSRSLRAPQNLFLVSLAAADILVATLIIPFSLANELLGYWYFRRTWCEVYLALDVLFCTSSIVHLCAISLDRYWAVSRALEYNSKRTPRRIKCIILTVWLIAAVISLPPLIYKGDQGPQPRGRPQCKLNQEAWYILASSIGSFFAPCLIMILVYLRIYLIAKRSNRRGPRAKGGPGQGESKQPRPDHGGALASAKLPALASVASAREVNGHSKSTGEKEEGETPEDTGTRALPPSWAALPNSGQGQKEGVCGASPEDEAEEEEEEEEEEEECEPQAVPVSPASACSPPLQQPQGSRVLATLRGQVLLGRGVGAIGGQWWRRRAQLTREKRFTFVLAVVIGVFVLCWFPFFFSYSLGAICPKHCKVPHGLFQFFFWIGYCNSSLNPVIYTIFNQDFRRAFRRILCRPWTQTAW
Description: PDSP Primary Binding target: ADRA2B - Compounds are tested at 10 uM concentration, plate are incubated at room temperature in the dark for 90 minutes. Reaction are stopped by vacuum filtration onto 0.3% polyethyleneimine soaked filter mats using Filtermate harvester. Scintilation cocktail is then melted onto microwave-dried filters on a hot plate and the radio activity is counted in Microbia counter.

[4] = target: Sigma non-opioid intracellular receptor 1 (Homo sapiens) (UniProt Q99720)
Sigma non-opioid intracellular receptor 1 (Homo sapiens), sequence (Q99720 whole entry): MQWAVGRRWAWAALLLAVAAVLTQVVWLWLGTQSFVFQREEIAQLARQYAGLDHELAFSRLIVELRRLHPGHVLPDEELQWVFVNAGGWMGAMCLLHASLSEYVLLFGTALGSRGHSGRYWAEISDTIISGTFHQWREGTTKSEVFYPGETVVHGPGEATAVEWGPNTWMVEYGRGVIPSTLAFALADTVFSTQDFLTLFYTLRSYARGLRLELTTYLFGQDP
Description: PDSP Primary Binding target: SIGMAR1 - Compounds are tested at 10 uM concentration, plate are incubated at room temperature in the dark for 90 minutes. Reaction are stopped by vacuum filtration onto 0.3% polyethyleneimine soaked filter mats using Filtermate harvester. Scintilation cocktail is then melted onto microwave-dried filters on a hot plate and the radio activity is counted in Microbia counter.

[5] = target: T2, Muscarinic acetylcholine receptor M5 (Homo sapiens) (UniProt P08912)
T2 sequence (whole entry): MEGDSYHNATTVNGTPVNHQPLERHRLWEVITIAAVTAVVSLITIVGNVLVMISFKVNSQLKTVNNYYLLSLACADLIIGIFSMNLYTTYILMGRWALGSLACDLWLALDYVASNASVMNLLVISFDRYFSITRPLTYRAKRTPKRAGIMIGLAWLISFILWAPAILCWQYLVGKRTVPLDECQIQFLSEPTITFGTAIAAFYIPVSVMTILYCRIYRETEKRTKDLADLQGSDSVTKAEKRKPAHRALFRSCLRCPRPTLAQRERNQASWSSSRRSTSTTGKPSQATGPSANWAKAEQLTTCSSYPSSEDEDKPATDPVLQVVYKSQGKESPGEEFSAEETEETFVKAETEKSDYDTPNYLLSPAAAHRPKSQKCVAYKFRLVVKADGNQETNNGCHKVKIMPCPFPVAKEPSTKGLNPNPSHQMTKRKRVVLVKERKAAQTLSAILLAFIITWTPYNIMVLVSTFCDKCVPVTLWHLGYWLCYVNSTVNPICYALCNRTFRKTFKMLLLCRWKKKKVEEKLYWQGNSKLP
Description: PDSP Primary Binding target: CHRM5 - Compounds are tested at 10 uM concentration, plate are incubated at room temperature in the dark for 90 minutes. Reaction are stopped by vacuum filtration onto 0.3% polyethyleneimine soaked filter mats using Filtermate harvester. Scintilation cocktail is then melted onto microwave-dried filters on a hot plate and the radio activity is counted in Microbia counter.

[6] = target: Translocator protein (Homo sapiens) (UniProt P30536)
Translocator protein (Homo sapiens), sequence (P30536 whole entry): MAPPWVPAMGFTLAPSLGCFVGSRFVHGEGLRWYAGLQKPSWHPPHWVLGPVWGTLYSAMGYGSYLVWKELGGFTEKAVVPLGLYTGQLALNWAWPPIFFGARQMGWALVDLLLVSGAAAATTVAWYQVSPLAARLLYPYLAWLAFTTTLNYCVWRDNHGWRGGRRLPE
Description: PDSP Primary Binding target: TSPO - Compounds are tested at 10 uM concentration, plate are incubated at room temperature in the dark for 90 minutes. Reaction are stopped by vacuum filtration onto 0.3% polyethyleneimine soaked filter mats using Filtermate harvester. Scintilation cocktail is then melted onto microwave-dried filters on a hot plate and the radio activity is counted in Microbia counter.

[7] = target: Sodium-dependent noradrenaline transporter (Homo sapiens) (UniProt P23975)
Sodium-dependent noradrenaline transporter (Homo sapiens), sequence (P23975 whole entry): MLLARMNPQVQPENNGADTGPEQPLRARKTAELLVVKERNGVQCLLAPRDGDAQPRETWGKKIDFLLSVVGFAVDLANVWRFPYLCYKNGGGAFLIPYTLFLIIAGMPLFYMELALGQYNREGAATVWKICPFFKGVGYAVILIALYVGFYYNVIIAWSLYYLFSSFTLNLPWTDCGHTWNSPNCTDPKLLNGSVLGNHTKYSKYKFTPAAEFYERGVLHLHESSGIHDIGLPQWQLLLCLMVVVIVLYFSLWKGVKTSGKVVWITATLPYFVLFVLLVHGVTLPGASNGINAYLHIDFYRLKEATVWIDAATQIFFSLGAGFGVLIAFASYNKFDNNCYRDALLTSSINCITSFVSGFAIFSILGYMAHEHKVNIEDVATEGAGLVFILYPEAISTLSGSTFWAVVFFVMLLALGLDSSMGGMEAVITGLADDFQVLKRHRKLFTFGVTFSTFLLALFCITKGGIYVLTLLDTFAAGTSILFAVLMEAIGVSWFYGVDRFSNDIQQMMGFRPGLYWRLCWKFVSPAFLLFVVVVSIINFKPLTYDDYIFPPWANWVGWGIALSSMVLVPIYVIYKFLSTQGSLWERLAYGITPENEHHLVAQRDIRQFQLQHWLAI
Description: PDSP Primary Binding target: SLC6A2 - Compounds are tested at 10 uM concentration, plate are incubated at room temperature in the dark for 90 minutes. Reaction are stopped by vacuum filtration onto 0.3% polyethyleneimine soaked filter mats using Filtermate harvester. Scintilation cocktail is then melted onto microwave-dried filters on a hot plate and the radio activity is counted in Microbia counter.

[8] = target: Kappa-type opioid receptor (Homo sapiens) (UniProt P41145)
Kappa-type opioid receptor (Homo sapiens), sequence (P41145 whole entry): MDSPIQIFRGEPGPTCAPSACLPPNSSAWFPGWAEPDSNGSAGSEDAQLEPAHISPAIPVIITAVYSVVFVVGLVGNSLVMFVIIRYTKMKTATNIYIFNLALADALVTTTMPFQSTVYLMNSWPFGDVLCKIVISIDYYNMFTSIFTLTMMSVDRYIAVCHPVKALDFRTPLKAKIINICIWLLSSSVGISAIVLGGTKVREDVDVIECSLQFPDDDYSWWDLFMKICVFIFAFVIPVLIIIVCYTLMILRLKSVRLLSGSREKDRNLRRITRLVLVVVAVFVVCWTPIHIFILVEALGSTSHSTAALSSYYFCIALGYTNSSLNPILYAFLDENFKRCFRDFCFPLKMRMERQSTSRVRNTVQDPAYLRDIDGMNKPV
Description: PDSP Primary Binding target: OPRK1 - Compounds are tested at 10 uM concentration, plate are incubated at room temperature in the dark for 90 minutes. Reaction are stopped by vacuum filtration onto 0.3% polyethyleneimine soaked filter mats using Filtermate harvester. Scintilation cocktail is then melted onto microwave-dried filters on a hot plate and the radio activity is counted in Microbia counter.

[9] = target: 5-hydroxytryptamine receptor 6 (Homo sapiens) (UniProt P50406)
5-hydroxytryptamine receptor 6 (Homo sapiens), sequence (P50406 whole entry): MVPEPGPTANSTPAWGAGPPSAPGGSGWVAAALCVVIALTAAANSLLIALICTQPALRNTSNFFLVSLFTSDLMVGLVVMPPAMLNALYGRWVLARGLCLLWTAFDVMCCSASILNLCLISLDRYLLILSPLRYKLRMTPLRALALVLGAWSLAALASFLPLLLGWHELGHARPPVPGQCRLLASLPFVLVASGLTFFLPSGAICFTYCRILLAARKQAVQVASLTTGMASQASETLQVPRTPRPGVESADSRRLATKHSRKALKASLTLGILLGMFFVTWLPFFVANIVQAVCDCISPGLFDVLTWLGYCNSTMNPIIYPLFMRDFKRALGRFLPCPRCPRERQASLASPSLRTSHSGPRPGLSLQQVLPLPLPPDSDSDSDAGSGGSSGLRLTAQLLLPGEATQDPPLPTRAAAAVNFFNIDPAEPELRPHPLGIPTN
Description: PDSP Primary Binding target: HTR6 - Compounds are tested at 10 uM concentration, plate are incubated at room temperature in the dark for 90 minutes. Reaction are stopped by vacuum filtration onto 0.3% polyethyleneimine soaked filter mats using Filtermate harvester. Scintilation cocktail is then melted onto microwave-dried filters on a hot plate and the radio activity is counted in Microbia counter.

[10] = target: T3, Alpha-1B adrenergic receptor (Homo sapiens) (UniProt P35368)
T3 sequence (whole entry): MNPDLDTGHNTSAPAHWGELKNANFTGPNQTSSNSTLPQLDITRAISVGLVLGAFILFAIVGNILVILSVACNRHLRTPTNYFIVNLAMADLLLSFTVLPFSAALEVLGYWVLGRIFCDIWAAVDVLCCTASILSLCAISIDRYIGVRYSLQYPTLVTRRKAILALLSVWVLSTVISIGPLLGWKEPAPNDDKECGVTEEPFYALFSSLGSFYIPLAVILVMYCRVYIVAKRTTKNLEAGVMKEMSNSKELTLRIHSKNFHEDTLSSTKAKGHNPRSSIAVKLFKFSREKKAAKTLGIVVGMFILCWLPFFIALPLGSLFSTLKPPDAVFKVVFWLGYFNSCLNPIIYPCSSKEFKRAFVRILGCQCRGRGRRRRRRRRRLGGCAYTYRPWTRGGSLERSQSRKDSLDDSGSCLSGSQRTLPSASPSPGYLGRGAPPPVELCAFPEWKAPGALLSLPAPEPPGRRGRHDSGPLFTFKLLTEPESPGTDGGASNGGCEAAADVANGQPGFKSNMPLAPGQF
Description: PDSP Primary Binding target: ADRA1B - Compounds are tested at 10 uM concentration, plate are incubated at room temperature in the dark for 90 minutes. Reaction are stopped by vacuum filtration onto 0.3% polyethyleneimine soaked filter mats using Filtermate harvester. Scintilation cocktail is then melted onto microwave-dried filters on a hot plate and the radio activity is counted in Microbia counter.

[11] = target: Beta-2 adrenergic receptor (Homo sapiens) (UniProt P07550)
Beta-2 adrenergic receptor (Homo sapiens), sequence (P07550 whole entry, looked up): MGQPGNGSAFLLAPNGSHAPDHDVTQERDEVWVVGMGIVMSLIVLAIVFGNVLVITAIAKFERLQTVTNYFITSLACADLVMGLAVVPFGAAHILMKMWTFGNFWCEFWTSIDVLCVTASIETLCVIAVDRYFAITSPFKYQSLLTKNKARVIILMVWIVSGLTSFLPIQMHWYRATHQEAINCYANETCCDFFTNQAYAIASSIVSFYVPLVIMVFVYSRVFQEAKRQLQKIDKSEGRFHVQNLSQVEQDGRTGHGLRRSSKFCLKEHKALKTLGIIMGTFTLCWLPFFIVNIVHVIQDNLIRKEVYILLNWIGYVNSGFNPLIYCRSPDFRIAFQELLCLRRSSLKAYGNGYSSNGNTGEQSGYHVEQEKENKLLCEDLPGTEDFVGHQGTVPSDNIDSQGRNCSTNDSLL
Description: PDSP Primary Binding target: ADRB2 - Compounds are tested at 10 uM concentration, plate are incubated at room temperature in the dark for 90 minutes. Reaction are stopped by vacuum filtration onto 0.3% polyethyleneimine soaked filter mats using Filtermate harvester. Scintilation cocktail is then melted onto microwave-dried filters on a hot plate and the radio activity is counted in Microbia counter.

[12] = target: Delta-type opioid receptor (Homo sapiens) (UniProt P41143)
Delta-type opioid receptor (Homo sapiens), sequence (P41143 whole entry): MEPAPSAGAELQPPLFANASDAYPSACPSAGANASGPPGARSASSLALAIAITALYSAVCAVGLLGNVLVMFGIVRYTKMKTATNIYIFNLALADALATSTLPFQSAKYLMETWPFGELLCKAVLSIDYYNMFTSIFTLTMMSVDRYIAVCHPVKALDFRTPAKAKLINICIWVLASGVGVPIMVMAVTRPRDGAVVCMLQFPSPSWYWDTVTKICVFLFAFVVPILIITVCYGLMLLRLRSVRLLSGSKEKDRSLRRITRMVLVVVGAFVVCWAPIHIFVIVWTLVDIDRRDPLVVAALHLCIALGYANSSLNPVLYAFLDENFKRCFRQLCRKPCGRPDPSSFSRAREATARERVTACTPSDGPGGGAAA
Description: PDSP Primary Binding target: OPRD1 - Compounds are tested at 10 uM concentration, plate are incubated at room temperature in the dark for 90 minutes. Reaction are stopped by vacuum filtration onto 0.3% polyethyleneimine soaked filter mats using Filtermate harvester. Scintilation cocktail is then melted onto microwave-dried filters on a hot plate and the radio activity is counted in Microbia counter.

[13] = target: T4, 5-hydroxytryptamine receptor 3A (Homo sapiens) (UniProt P46098)
T4 sequence (whole entry): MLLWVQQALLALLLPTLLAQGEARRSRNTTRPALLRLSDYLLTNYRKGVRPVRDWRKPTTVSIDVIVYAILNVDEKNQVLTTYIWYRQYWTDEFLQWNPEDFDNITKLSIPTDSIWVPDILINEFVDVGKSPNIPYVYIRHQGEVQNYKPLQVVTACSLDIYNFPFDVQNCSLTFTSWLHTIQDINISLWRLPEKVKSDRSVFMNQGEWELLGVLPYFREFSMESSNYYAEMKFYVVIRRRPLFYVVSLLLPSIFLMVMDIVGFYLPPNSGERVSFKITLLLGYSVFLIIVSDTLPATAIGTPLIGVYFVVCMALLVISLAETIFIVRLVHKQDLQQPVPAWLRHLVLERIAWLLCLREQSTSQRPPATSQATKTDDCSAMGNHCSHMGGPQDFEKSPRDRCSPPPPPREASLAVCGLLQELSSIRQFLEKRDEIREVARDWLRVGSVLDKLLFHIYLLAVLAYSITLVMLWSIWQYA
Description: PDSP Primary Binding target: HTR3A - Compounds are tested at 10 uM concentration, plate are incubated at room temperature in the dark for 90 minutes. Reaction are stopped by vacuum filtration onto 0.3% polyethyleneimine soaked filter mats using Filtermate harvester. Scintilation cocktail is then melted onto microwave-dried filters on a hot plate and the radio activity is counted in Microbia counter.

Sodium-dependent dopamine transporter (Homo sapiens), sequence (Q01959 whole entry): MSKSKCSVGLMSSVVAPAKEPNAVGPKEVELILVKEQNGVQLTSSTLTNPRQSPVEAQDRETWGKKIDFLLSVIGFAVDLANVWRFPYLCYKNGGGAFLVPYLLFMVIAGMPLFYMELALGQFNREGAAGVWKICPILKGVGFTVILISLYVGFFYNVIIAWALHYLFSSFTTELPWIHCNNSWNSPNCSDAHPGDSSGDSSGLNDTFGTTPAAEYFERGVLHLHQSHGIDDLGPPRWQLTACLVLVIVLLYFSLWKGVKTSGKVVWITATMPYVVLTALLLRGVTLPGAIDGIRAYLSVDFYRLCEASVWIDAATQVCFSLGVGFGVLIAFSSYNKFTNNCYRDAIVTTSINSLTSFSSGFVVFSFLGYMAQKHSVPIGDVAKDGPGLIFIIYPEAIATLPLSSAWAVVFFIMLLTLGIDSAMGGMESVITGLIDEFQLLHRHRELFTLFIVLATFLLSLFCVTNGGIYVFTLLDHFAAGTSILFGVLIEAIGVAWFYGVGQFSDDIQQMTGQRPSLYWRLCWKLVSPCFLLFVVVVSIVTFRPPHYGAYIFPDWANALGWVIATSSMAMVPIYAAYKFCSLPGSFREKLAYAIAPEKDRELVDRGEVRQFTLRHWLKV
Mu-type opioid receptor (Homo sapiens), sequence (P35372 whole entry): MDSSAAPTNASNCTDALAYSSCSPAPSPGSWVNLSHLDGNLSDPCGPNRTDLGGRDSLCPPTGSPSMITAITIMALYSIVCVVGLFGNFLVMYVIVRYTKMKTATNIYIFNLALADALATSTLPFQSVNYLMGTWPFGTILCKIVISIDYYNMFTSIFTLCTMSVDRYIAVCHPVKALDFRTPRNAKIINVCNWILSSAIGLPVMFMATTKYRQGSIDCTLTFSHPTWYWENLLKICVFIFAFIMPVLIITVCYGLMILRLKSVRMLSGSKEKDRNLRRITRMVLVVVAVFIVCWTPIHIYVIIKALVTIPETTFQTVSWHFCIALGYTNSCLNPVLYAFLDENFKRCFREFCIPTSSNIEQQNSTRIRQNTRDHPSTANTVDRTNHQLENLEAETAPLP

| Compound | inhibition [1] | inhibition [2] | inhibition [3] | inhibition [4] | inhibition [5] | inhibition [6] | inhibition [7] | inhibition [8] | inhibition [9] | inhibition [10] | inhibition [11] | inhibition [12] | inhibition [13] |
| --- | --- | --- | --- | --- | --- | --- | --- | --- | --- | --- | --- | --- | --- |
| O=C(Cc1ccccc1)Nc1nc2ccc(Cl)cc2c2nc(-c3ccco3)nn12 | 17.8% | 27.1% | 4.67% | -4.19% | -3.93% | 18.7% | -6.09% | 12.4% | -2.97% | -7.34% | 2.33% |  |  |
| O=c1ccn([C@@H]2O[C@H](COP(=O)(O)OP(=O)(O)O)[C@@H](O)[C@H]2O)c(=O)[nH]1 | 44% | 6.84% | -3.44% | 4.23% | -9.39% | 5.14% | 13.7% | 6.04% | 6.18% | -6.51% | -0.48% | 14.1% |  |
| CCCCc1nc(Cl)c(CO)n1Cc1ccc(-c2ccccc2-c2nnn[nH]2)cc1 | -1.17% |  |  | 9.91% | 0.95% | 5.8% | 11.8% |  | 17.6% | -2.24% |  | 19.2% | -6.45% |
| CC(C)NCC(O)COc1ccc(CCOCC2CC2)cc1 (stereo not given) | 3.09% | 27.9% | 24.5% | 91.7% | 0.46% | 4.48% | 45.1% | 20.5% | -5.1% | 19.5% |  | 3.69% | -0.24% |
| Cc1csc2c(N[C@@H](C)CN3CCN(S(=O)(=O)c4ccc(Cl)c(Cl)c4)CC3)ncnc12 | 14.7% |  | -6.72% | 86% | -7.08% | 73.6% | -2.51% | 85.4% | 12.8% | 7.3% | 1.66% | 4.01% |  |
| COc1ccc(S(=O)(=O)c2cc(OC)ccc2S(=O)(=O)c2ccc([C@H](C)NS(C)(=O)=O)cc2)cc1 | 11.3% | 18.8% | 0.09% | 23.1% | -5.9% | 25.6% | -0.68% | 2.71% | 96.5% | -4.35% | -1.6% |  | -2.2% |
| Cc1ccccc1C(=O)Nc1ccc(C(=O)N2CCCC(O)c3cc(Cl)ccc32)c(C)c1 (stereo not given) | 53.2% | 21.9% | 17.5% | 28.2% | 4.97% | 35.6% | 20.8% | 21% | 1.21% | 0.66% |  | 7.13% | -5.18% |
| C[C@@H](NCCCc1cccc(C(F)(F)F)c1)c1cccc2ccccc12 | 78.3% | 70.4% | 39.4% |  | 7.94% | 13.5% | 60.8% | 79.3% | 69.1% | 53.8% | 9.84% |  | 15.4% |
| CN1C2CCC1CC(OC(c1ccc(F)cc1)c1ccc(F)cc1)C2 (stereo not given) | 59.1% | 96.9% |  | 93.6% | 94.5% | 47.8% | 102% | 65.7% | 96.1% | 96.5% | -6.19% |  | 79.5% |
| C[C@@H](N)Cc1c[nH]cn1 |  | 3.36% | 9.47% | 20.9% | -5.67% |  | -7.81% | -2.45% | 2.58% |  | 10.2% |  | 5.88% |
| CN(C)C(=O)C(CCN1CCC(O)(c2ccc(Cl)cc2)CC1)(c1ccccc1)c1ccccc1 |  | 64.3% |  | 87.2% | 2.95% | 50% | 25.8% |  | 14.9% | 52.4% | 44.6% | 91.5% |  |
| CCCn1c(=O)c2[nH]c(-c3cnn(Cc4cccc(C(F)(F)F)c4)c3)nc2n(CC)c1=O | -6.55% | 45.8% | 11% | 43.2% | -2.1% | 14.7% | 25.1% | -2.72% |  | -5.87% | -2.75% | -6.13% | -4.02% |
| C[C@@H](NCCc1ccc(O)cc1)[C@@H](O)c1ccc(O)cc1 (relative stereo) | 51.1% | 39.6% | 5.66% | 75% | -3.49% | 3.95% | 51.8% | 23.2% |  | 21.4% | 36.5% | 17.5% |  |
| COc1ccc(/C=C/CCCCOc2ccc(C(=O)c3cccc(C(=O)O)c3)cc2CCC(=O)O)cc1 | 22.4% | 23.6% | 29.1% | 11.6% | 3.16% | 35.5% | -6.68% | 10.7% | 29.1% | -5.5% |  | 46.8% | -4.61% |
| Cc1cc(NC(=O)Nc2ccc(N(C)C)cc2)c2cc(F)cc(F)c2n1 | 1.4% | 22.8% | 3.9% | 96% | 39.2% | 8.35% | 35.9% | 22.3% |  | 14% | 16.5% |  | 7.73% |
| CC(C)NCC(O)COc1cccc2ccccc12 (stereo not given) | 17.4% | 38.4% |  | 54.7% | 6.07% |  | 46.2% | 16.1% | 74.2% |  |  | 7.31% | 8.73% |
| CCCCN(CCCC)C(=O)CN1C[C@@H](c2ccc3c(c2)OCO3)[C@H](C(=O)O)[C@H]1c1ccc(OC)cc1 | 0.92% | 25.8% | 2.24% | 59.9% | 30.2% | 84.7% | 5.56% | 27.6% |  | -5.54% |  | -0.59% | 2.68% |
